Data set [1] deals with 501Mel-GP cells (Dabrafenib-resistant). The data set is described as follows: Dose-response curves and IC50, PrestoBlue cell viability, 72 h. The following applies: read-out: Half-maximal inhibitory concentration (IC50).
Data set [2] relates to A375-GP cells (Dabrafenib-resistant). The data set is described as above. As to conditions: n.e. = did not suppress growth below 50% in the tested concentration range; for IC50: read-out: Half-maximal inhibitory concentration value (IC50), Mean. It counts as cell-based, human.
Data set [3] relates to 501Mel-XP cells (Vemurafenib-resistant). The data set is described as above. As to conditions: read-out: Half-maximal inhibitory concentration (IC50).
Data set [4] has as its system IGR37 cells (parental). The data set is described as above. The following applies: read-out: Half-maximal inhibitory concentration (IC50).
Data set [5] relates to IGR37-XP cells (Vemurafenib-resistant). The description is as above. The following applies: read-out: Half-maximal inhibitory concentration (IC50).
Data set [6] deals with A375 cells (parental). The data set is described as above. In kind it is cell-based, human. As to conditions: read-out: Half-maximal inhibitory concentration value (IC50), Mean.
For data set [7], the system named is A375-XP cells (Vemurafenib-resistant). Described as above. As to conditions: n.e. = did not suppress growth below 50% in the tested concentration range; for IC50: read-out: Half-maximal inhibitory concentration value (IC50), Mean. It counts as cell-based, human.
In data set [8] the test system is IGR37-GP cells (Dabrafenib-resistant). Described as above. As to conditions: read-out: Half-maximal inhibitory concentration (IC50).
The subject of data set [9] is 501Mel cells (parental). Described as above. As to conditions: read-out: Half-maximal inhibitory concentration (IC50).
Data set [10] concerns NHDF (normal human dermal fibroblasts). The experiment in a line: Dose-response curves and IC50 in non-cancer cells, cell viability, 72 h. The following applies: fibroblasts (NHDF). On the procedure:
(§1) The IC50 values (nM) were calculated as indicated in Methods.

Data set [11] has as its system NHEM (normal human epidermal melanocytes). The description is as above. The following applies: melanocytes (NHEM). On the procedure:
as §1

Data set [12] concerns 501Mel-XP cells (Vemurafenib-resistant). The data set is described as follows: Kinase inhibitor library screening, PrestoBlue cell viability, 1 or 10 μM, 72 h. As to conditions: 501Mel XP, in %.
Data set [13] concerns A375-GP cells (Dabrafenib-resistant). Described as above. The following applies: A375 GP, in %.
Data set [14] deals with 501Mel cells (parental). The description is as above. As to conditions: 501Mel Parental, in %. The essentials:
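Normalised to untreated controls, viability percentages came from PrestoBlue measured on a microplate reader following 72 h incubation with drug. Each line was assayed at least twice.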

Data set [15] has as its system 501Mel-GP cells (Dabrafenib-resistant). The description is as above. As to conditions: 501Mel GP, in %.
The subject of data set [16] is A375 cells (parental). The data set is described as above. As to conditions: A375 Parental, in %.
For data set [17], the system named is IGR37-GP cells (Dabrafenib-resistant). The data set is described as above. As to conditions: IGR37 GP, in %.
Data set [18] deals with A375-XP cells (Vemurafenib-resistant). The description is as above. As to conditions: A375 XP, in %.
Data set [19] deals with IGR37-XP cells (Vemurafenib-resistant). Described as above. As to conditions: IGR37 XP, in %.
Data set [20] has as its system IGR37 cells (parental). The description is as above. The following applies: IGR37 Parental, in %.
The subject of data set [21] is A375 cells. The experiment in a line: Synergy determination with the Chou-Talalay method (CompuSyn), cell viability 72 h. It counts as cell-based, human. As to conditions: 72 h cell viability, Chou-Talalay / Synergyfinder. On the procedure: The Chou-Talalay method to determine possible synergistic effects of selected kinase inhibitor combinations was used as described in [19]. […] Cells were treated with either single inhibitors or combinations thereof at indicated amounts in technical triplicates. The amounts were pre-determined from each inhibitor’s IC50 value and inhibitors were assayed in a defined dilution series and at constant ratio when combined. […] Combination Index (CI) values showing either synergy (< 1) or antagonism (> 1) were calculated with the CompuSyn software (ComboSyn, Inc).

The mark [22] stands for this setting: Homo sapiens, A-375, n.e. = did not suppress growth below 50% in the tested concentration range.

Where two headings read alike, the source gives them in different places.

For the compound `C[C@@H](Oc1cc(-c2cnn(C3CCNCC3)c2)cnc1N)c1c(Cl)ccc(F)c1Cl` [Crizotinib], the IC50 in data set [1] (Homo sapiens, 72 h) is 3.28 µM; in data set [2] (Homo sapiens) it was 5.09 µM; in data set [3] (Homo sapiens, 72 h) it was 1.35 µM; in [4] (Homo sapiens, IGR-37, 72 h) it was 6.89 µM; in [5] (Homo sapiens, 72 h), 5.94 µM; in [6] (setting [22]), 5.55 µM. The IC50 in data set [7] (Homo sapiens) was found to be 5.14 µM; in data set [8] (Homo sapiens, 72 h), 6.75 µM; in data set [9] (Homo sapiens, 72 h), 6.52 µM.
`CC(C)(C)c1nc(-c2cccc(NS(=O)(=O)c3c(F)cccc3F)c2F)c(-c2ccnc(N)n2)s1` [Dabrafenib]: the “Half-maximal inhibitory concentration value (IC50), Mean” value in [2] and in [7] was “n.e” throughout. Further, the IC50 in data set [6] (setting [22]) turned out to be 0.0019 µM. Also, the “effect on healthy cells, cell viability (in words)” value in data set [10] and in [11] was “did not have any effect” throughout.
Consider `NC1(c2ccc(-c3nc4ccn5c(=O)[nH]nc5c4cc3-c3ccccc3)cc2)CCC1` [MK-2206], for which the IC50 in data set [1] (Homo sapiens, 72 h) is 4.36 µM; in data set [2] (Homo sapiens), 6.43 µM; in data set [3] (Homo sapiens, 72 h) it was 2.23 µM; in data set [4] (Homo sapiens, IGR-37, 72 h) it was 4.75 µM; in data set [5] (Homo sapiens, 72 h) it was 5.08 µM; in data set [6] (setting [22]), 7.8 µM. The IC50 in [7] (Homo sapiens) came out at 3.38 µM; in [8] (Homo sapiens, 72 h), 4.73 µM; in data set [9] (Homo sapiens, 72 h) it was 4.55 µM.
In the case of `Cc1ccc(C(=O)Nc2cccc(C(F)(F)F)c2)cc1Nc1nc(-c2cccnc2)nc2c1cnn2C` [NVP-BHG712, reference compound], the IC50 in data set [1] (501Mel-GP (Dabrafenib-resistant), 72 h cell viability) was determined as 4.88 µM; in data set [2], 1.91 µM; in [3] (501Mel-XP (Vemurafenib-resistant), 72 h cell viability) it was 3.82 µM; in data set [4] (IGR37 parental, 72 h cell viability) it was 5.78 µM; in data set [5] (IGR37-XP (Vemurafenib-resistant), 72 h cell viability), 5.95 µM; in data set [6] (n.e. = did not suppress growth below 50% in the tested concentration range) it was 4.42 µM. Moreover, the IC50 in data set [7] is 3.2 µM; in data set [8] (IGR37-GP (Dabrafenib-resistant), 72 h cell viability) it was 7.02 µM; in [9] (501Mel parental, 72 h cell viability), 4.48 µM. Moreover, the “cell viability (kinase inhibitor library screening)” value in data set [12] (1μΜ) is recorded as 121.0; in data set [12] (10μΜ), 2.2; in data set [13] (1μΜ) it was 80.6; in data set [13] (10μΜ), 37.1; in data set [14] (1μΜ), 103.2; in data set [14] (10μΜ), 27.8. Also, the “cell viability (kinase inhibitor library screening)” value in [15] (1μΜ) was determined as 107.1; in data set [15] (10μΜ), 25.6; in data set [16] (1μΜ) it was 103.3; in data set [16] (10μΜ) it was 63.1; in [17] (1μΜ), 97.4; in data set [17] (10μΜ), 51.2. The “cell viability (kinase inhibitor library screening)” value was 84.7 in data set [18] (1μΜ); 29.1 in data set [18] (10μΜ); 103.3 in [19] (1μΜ); 17.6 in data set [19] (10μΜ); 107.5 in [20] (1μΜ); 83.5 in [20] (10μΜ).
As to `Cc1ccc(C(=O)Nc2ccc(CN3CCN(C)CC3)c(C(F)(F)F)c2)cc1C#Cc1cnc2cccnn12` [Ponatinib], the IC50 in data set [1] (Homo sapiens, 72 h) was 1.4 µM; in [2] (Homo sapiens), 0.226 µM; in data set [3] (Homo sapiens, 72 h), 1.34 µM; in [4] (Homo sapiens, IGR-37, 72 h), 1.07 µM; in data set [5] (Homo sapiens, 72 h) it was 1.43 µM; in data set [6] (setting [22]) it was 0.628 µM. The IC50 in data set [7] (Homo sapiens) is 0.177 µM; in data set [8] (Homo sapiens, 72 h), 1.35 µM; in data set [9] (Homo sapiens, 72 h), 1.17 µM. Also, in data set [21], the “synergistic effects with the BRAF inhibitors Vemurafenib and/or Dabrafenib (in words)” value is given as “did not act synergistically”.
In the case of `COc1cc(OC)c(/C=C/S(=O)(=O)Cc2ccc(OC)c(NCC(=O)O)c2)c(OC)c1` [Rigosertib], the IC50 in [1] (Homo sapiens, 72 h) came out at 0.07 µM; in data set [2] (Homo sapiens) it was 0.05 µM; in [3] (Homo sapiens, 72 h) it was 0.063 µM; in data set [4] (Homo sapiens, IGR-37, 72 h) it was 0.103 µM; in [5] (Homo sapiens, 72 h) it was 0.121 µM; in data set [6] (setting [22]), 0.064 µM. The IC50 in data set [7] (Homo sapiens) is 0.059 µM; in [8] (Homo sapiens, 72 h), 0.09 µM; in data set [9] (Homo sapiens, 72 h), 0.08 µM. Besides, the “synergistic effects with the BRAF inhibitors Vemurafenib and/or Dabrafenib (in words)” value in data set [21] is “did not act synergistically”.
With `CNC(=O)c1cc(Oc2ccc(NC(=O)Nc3ccc(Cl)c(C(F)(F)F)c3)cc2)ccn1` [Sorafenib], the IC50 came out at 6.94 µM in data set [1] (Homo sapiens, 72 h); 2.5 µM in data set [2] (Homo sapiens); 5.43 µM in [3] (Homo sapiens, 72 h); 7.31 µM in data set [4] (Homo sapiens, IGR-37, 72 h); 10 µM in data set [5] (Homo sapiens, 72 h); 5.11 µM in data set [6] (setting [22]). Also, the IC50 was found to be 4.54 µM in [7] (Homo sapiens); 9.52 µM in data set [8] (Homo sapiens, 72 h); 7.04 µM in [9] (Homo sapiens, 72 h).
As for `O=C(O)c1ccc2c(c1)nc(Nc1cccc(Cl)c1)c1ccncc12` [cx-4945], the IC50 in data set [1] (Homo sapiens, 72 h) turned out to be 4.94 µM; in data set [2] (Homo sapiens) it was 5.34 µM; in [3] (Homo sapiens, 72 h), 4.65 µM; in data set [4] (Homo sapiens, IGR-37, 72 h), 6.66 µM; in [5] (Homo sapiens, 72 h) it was 6.1 µM; in data set [6] (setting [22]), 5.62 µM. The IC50 was found to be 5.21 µM in data set [7] (Homo sapiens); 9.09 µM in [8] (Homo sapiens, 72 h); 7.17 µM in data set [9] (Homo sapiens, 72 h).

The values are drawn from article PMC6364417, “Kinase inhibitor library screening identifies synergistic drug combinations effective in sensitive and resistant melanoma cells” (Journal of Experimental & Clinical Cancer Research : CR, 2019).
